Laboratory results as given in patent US11104671B2, “Insecticidal compounds” (SYNGENTA PARTICIPATIONS AG, priority 2017, dated 2021).

What was measured:
Assay type in all cases: in vivo
Myzus persicae [1] = assay: Myzus persicae (green peach aphid), feeding/contact activity; conditions: foliar, 144 h, application rate 200 ppm, 6 days after infestation, sunflower leaf discs, mixed ages, read-out: mortality
Experimental: Myzus persicae (Green Peach Aphid): Feeding/Contact Activity
Sunflower leaf discs were placed onto agar in a 24-well microtiter plate and sprayed with aqueous test solutions prepared from 10,000 ppm DMSO stock solutions. After drying, the leaf discs were infested with an aphid population of mixed ages. The samples were assessed for mortality 6 days after infestation.

Spodoptera littoralis = Spodoptera littoralis (Egyptian cotton leaf worm), cotton leaf discs, L1 larvae; conditions: foliar, 72 h, application rate 200 ppm, 3 days after infestation, L1 larvae, read-out: control (mortality, anti-feedant effect or growth inhibition)
Experimental: Spodoptera littoralis (Egyptian Cotton Leaf Worm)
Cotton leaf discs were placed onto agar in 24-well microtiter plates and sprayed with aqueous test solutions prepared from 10,000 ppm DMSO stock solutions. After drying the leaf discs were infested with five L1 larvae. The samples were assessed for mortality, anti-feeding effect, and growth inhibition in comparison to untreated samples 3 days after infestation. Control of Spodoptera littoralis by a test sample is given when at least one of the categories mortality, anti-feedant effect, and growth inhibition is higher than the untreated sample.

Plutella xylostella = Plutella xylostella (diamond back moth), artificial diet, L2 larvae; conditions: 120 h, application rate 200 ppm, 5 days after infestation, L2 larvae, read-out: effect in at least one of the two categories (mortality or growth inhibition)
Experimental: Plutella xylostella (Diamond Back Moth)
24-well microtiter plates with artificial diet were treated with aqueous test solutions prepared from 10,000 ppm DMSO stock solutions by pipetting. After drying, the plates were infested with L2 larvae (10 to 15 per well). The samples were assessed for mortality and growth inhibition in comparison to untreated samples 5 days after infestation.

Euschistus heros = Euschistus heros (neotropical brown stink bug), soybean leaves sprayed, N2 nymphs; conditions: 120 h, application rate 200 ppm, 5 days after infestation, N2 nymphs, read-out: effect in at least one of the two categories (mortality or growth inhibition)
Experimental: Euschistus heros (Neotropical Brown Stink Bug)
Soybean leaves on agar in 24-well microtiter plates were sprayed with aqueous test solutions prepared from 10,000 ppm DMSO stock solutions. After drying the leaves were infested with N2 nymphs. The samples were assessed for mortality and growth inhibition in comparison to untreated samples 5 days after infestation.

Tetranychus urticae = Tetranychus urticae (two-spotted spider mite), feeding/contact activity; conditions: foliar, 192 h, application rate 200 ppm, 8 days after infestation, bean leaf discs, read-out: mortality on mixed population (mobile stages)
Experimental: Tetranychus urticae (Two-Spotted Spider Mite): Feeding/Contact Activity
Bean leaf discs on agar in 24-well microtiter plates were sprayed with aqueous test solutions prepared from 10,000 ppm DMSO stock solutions. After drying the leaf discs were infested with a mite population of mixed ages. The samples were assessed for mortality on mixed population (mobile stages) 8 days after infestation.

Diabrotica balteata = Diabrotica balteata (corn root worm), maize sprouts sprayed, L2 larvae; conditions: 96 h, application rate 200 ppm, 4 days after infestation, L2 larvae, read-out: effect in at least one of the two categories (mortality or growth inhibition)
Experimental: Diabrotica Balteata (Corn Root Worm)
Maize sprouts placed onto an agar layer in 24-well microtiter plates were treated with aqueous test solutions prepared from 10,000 ppm DMSO stock solutions by spraying. After drying, the plates were infested with L2 larvae (6 to 10 per well). The samples were assessed for mortality and growth inhibition in comparison to untreated samples 4 days after infestation.

Thrips tabaci = Thrips tabaci (onion thrips), feeding/contact activity; conditions: foliar, 144 h, application rate 200 ppm, 6 days after infestation, sunflower leaf discs, mixed ages, read-out: mortality
Experimental: Thrips tabaci (Onion thrips) Feeding/Contact Activity
Sunflower leaf discs were placed on agar in 24-well microtiter plates and sprayed with aqueous test solutions prepared from 10,000 ppm DMSO stock solutions. After drying the leaf discs were infested with a thrips population of mixed ages. The samples were assessed for mortality 6 days after infestation.

Myzus persicae [2] = assay: Myzus persicae (green peach aphid), intrinsic activity; conditions: 120 h, test rate 12 ppm, 5 days after infestation, sucrose solution, infested pea seedlings, read-out: mortality
Source text: Myzus persicae (Green Peach Aphid). Intrinsic Activity
Test compounds prepared from 10,000 ppm DMSO stock solutions were applied by pipette into 24-well microtiter plates and mixed with sucrose solution. The plates were closed with a stretched Parafilm. A plastic stencil with 24 holes was placed onto the plate and infested pea seedlings were placed directly on the Parafilm. The infested plate was closed with a gel blotting paper and another plastic stencil and then turned upside down. The samples were assessed for mortality 5 days after infestation.

Cc1nc(N2CCC(c3cc(Cl)cc(Cl)c3)(C(F)(F)F)C2)ccc1C(=O)N[C@H]1CON(S(=O)(=O)N(C)C)C1 (stereo partly drawn) [Compound A16, 6-[3-(3,5-dichlorophenyl)-3-(trifluoromethyl)pyrrolidin-1-yl]-N-[(4R)-2-(dimethylsulfamoyl)isoxazolidin-4-yl]-2-methyl-pyridine-3-carboxamide]
≥ 80%: mortality at 200 ppm (Myzus persicae [1]) | percent control (mortality, anti-feedant effect or growth inhibition) at 200 ppm (Spodoptera littoralis) | percent effect (mortality or growth inhibition) at 200 ppm (Plutella xylostella) | percent effect (mortality or growth inhibition) at 200 ppm (Euschistus heros) | mortality at 200 ppm (Tetranychus urticae) | percent effect (mortality or growth inhibition) at 200 ppm (Diabrotica balteata) | mortality at 200 ppm (Thrips tabaci)

Cc1cc(C2=NS[C@@](c3cc(Cl)cc(Cl)c3)(C(F)(F)F)C2)ccc1C(=O)N[C@H]1CON(S(=O)(=O)N(C)C)C1 [Compound A13, 4-[(5S)-5-(3,5-dichlorophenyl)-5-(trifluoromethyl)-4H-isothiazol-3-yl]-N-[(4R)-2-(dimethylsulfamoyl)isoxazolidin-4-yl]-2-methyl-benzamide]
≥ 80%: mortality at 200 ppm (Myzus persicae [1]) | percent control (mortality, anti-feedant effect or growth inhibition) at 200 ppm (Spodoptera littoralis) | percent effect (mortality or growth inhibition) at 200 ppm (Plutella xylostella) | percent effect (mortality or growth inhibition) at 200 ppm (Euschistus heros) | mortality at 200 ppm (Tetranychus urticae) | percent effect (mortality or growth inhibition) at 200 ppm (Diabrotica balteata) | mortality at 200 ppm (Thrips tabaci)

Cc1cc(C2=COC(c3cc(Cl)cc(Cl)c3)(C(F)(F)F)C2)ccc1C(=O)NC1CON(S(C)(=O)=O)C1 (centres unmarked) [Compound A3, 4-[2-(3,5-dichlorophenyl)-2-(trifluoromethyl)-3H-furan-4-yl]-2-methyl-N-(2-methylsulfonylisoxazolidin-4-yl)benzamide]
≥ 80%: mortality at 12 ppm (Myzus persicae [2]) | percent control (mortality, anti-feedant effect or growth inhibition) at 200 ppm (Spodoptera littoralis) | percent effect (mortality or growth inhibition) at 200 ppm (Plutella xylostella) | percent effect (mortality or growth inhibition) at 200 ppm (Euschistus heros) | mortality at 200 ppm (Tetranychus urticae) | percent effect (mortality or growth inhibition) at 200 ppm (Diabrotica balteata) | mortality at 200 ppm (Thrips tabaci)

Cc1nc(C2=CC(c3cc(Cl)cc(Cl)c3)(C(F)(F)F)OC2)ccc1C(=O)N[C@H]1CON(S(=O)(=O)N(C)C)C1 (stereo partly drawn) [Compound A17, 6-[5-(3,5-dichlorophenyl)-5-(trifluoromethyl)-2H-furan-3-yl]-N-[(4R)-2-(dimethylsulfamoyl)isoxazolidin-4-yl]-2-methyl-pyridine-3-carboxamide]
≥ 80%: percent control (mortality, anti-feedant effect or growth inhibition) at 200 ppm (Spodoptera littoralis) | percent effect (mortality or growth inhibition) at 200 ppm (Plutella xylostella) | percent effect (mortality or growth inhibition) at 200 ppm (Euschistus heros) | mortality at 200 ppm (Tetranychus urticae) | percent effect (mortality or growth inhibition) at 200 ppm (Diabrotica balteata) | mortality at 200 ppm (Thrips tabaci)

Cc1cc(C2=COC(c3cc(Cl)cc(Cl)c3)(C(F)(F)F)C2)ccc1C(=O)N[C@H]1CON(S(=O)(=O)N(C)C)C1 (stereo partly drawn) [Compound A12, 4-[2-(3,5-dichlorophenyl)-2-(trifluoromethyl)-3H-furan-4-yl]-N-[(4R)-2-(dimethylsulfamoyl)isoxazolidin-4-yl]-2-methyl-benzamide]
≥ 80%: mortality at 200 ppm (Myzus persicae [1]) | percent control (mortality, anti-feedant effect or growth inhibition) at 200 ppm (Spodoptera littoralis) | percent effect (mortality or growth inhibition) at 200 ppm (Plutella xylostella) | percent effect (mortality or growth inhibition) at 200 ppm (Euschistus heros) | mortality at 200 ppm (Tetranychus urticae) | percent effect (mortality or growth inhibition) at 200 ppm (Diabrotica balteata) | mortality at 200 ppm (Thrips tabaci)

CS(=O)(=O)N1CC(NC(=O)c2ccc(C3=CSC(c4cc(Cl)c(Cl)c(Cl)c4)(C(F)(F)F)C3)cc2Cl)CO1 (centres unmarked) [Compound A1, 2-chloro-N-(2-methylsulfonylisoxazolidin-4-yl)-4-[2-(3,4,5-trichlorophenyl)-2-(trifluoromethyl)-3H-thiophen-4-yl]benzamide]
≥ 80%: mortality at 12 ppm (Myzus persicae [2]) | percent control (mortality, anti-feedant effect or growth inhibition) at 200 ppm (Spodoptera littoralis) | percent effect (mortality or growth inhibition) at 200 ppm (Plutella xylostella) | percent effect (mortality or growth inhibition) at 200 ppm (Euschistus heros) | mortality at 200 ppm (Tetranychus urticae) | percent effect (mortality or growth inhibition) at 200 ppm (Diabrotica balteata) | mortality at 200 ppm (Thrips tabaci)

Cc1cc(C2=NS[C@@](c3cc(Cl)cc(Cl)c3)(C(F)(F)F)C2)ccc1C(=O)NC1CON(S(C)(=O)=O)C1 (stereo partly drawn) [Compound A2, 4-[(5S)-5-(3,5-dichlorophenyl)-5-(trifluoromethyl)-4H-isothiazol-3-yl]-2-methyl-N-(2-methylsulfonylisoxazolidin-4-yl)benzamide]
≥ 80%: mortality at 200 ppm (Myzus persicae [1]) | mortality at 12 ppm (Myzus persicae [2]) | percent control (mortality, anti-feedant effect or growth inhibition) at 200 ppm (Spodoptera littoralis) | percent effect (mortality or growth inhibition) at 200 ppm (Plutella xylostella) | percent effect (mortality or growth inhibition) at 200 ppm (Euschistus heros) | mortality at 200 ppm (Tetranychus urticae) | percent effect (mortality or growth inhibition) at 200 ppm (Diabrotica balteata) | mortality at 200 ppm (Thrips tabaci)

Cc1cc(N2CCC(c3cc(Cl)cc(Cl)c3)(C(F)(F)F)C2)ncc1C(=O)N[C@H]1CON(S(=O)(=O)N(C)C)C1 (stereo partly drawn) [Compound A15, 6-[3-(3,5-dichlorophenyl)-3-(trifluoromethyl)pyrrolidin-1-yl]-N-[(4R)-2-(dimethylsulfamoyl)isoxazolidin-4-yl]-4-methyl-pyridine-3-carboxamide]
≥ 80%: percent control (mortality, anti-feedant effect or growth inhibition) at 200 ppm (Spodoptera littoralis) | percent effect (mortality or growth inhibition) at 200 ppm (Plutella xylostella) | percent effect (mortality or growth inhibition) at 200 ppm (Euschistus heros) | mortality at 200 ppm (Tetranychus urticae) | percent effect (mortality or growth inhibition) at 200 ppm (Diabrotica balteata)

Cc1cc(C2=NCC(c3cc(Cl)c(F)c(Cl)c3)(C(F)(F)F)C2)ccc1C(=O)N[C@H]1CON(S(=O)(=O)N(C)C)C1 (stereo partly drawn) [Compound A10, 4-[3-(3,5-dichloro-4-fluoro-phenyl)-3-(trifluoromethyl)-2,4-dihydropyrrol-5-yl]-N-[(4R)-2-(dimethylsulfamoyl)isoxazolidin-4-yl]-2-methyl-benzamide]
≥ 80%: mortality at 200 ppm (Myzus persicae [1]) | percent control (mortality, anti-feedant effect or growth inhibition) at 200 ppm (Spodoptera littoralis) | percent effect (mortality or growth inhibition) at 200 ppm (Plutella xylostella) | percent effect (mortality or growth inhibition) at 200 ppm (Euschistus heros) | mortality at 200 ppm (Tetranychus urticae) | percent effect (mortality or growth inhibition) at 200 ppm (Diabrotica balteata) | mortality at 200 ppm (Thrips tabaci)

Cc1cc(C2=NCC(c3cc(Cl)cc(Cl)c3)(C(F)(F)F)C2)ccc1C(=O)N[C@H]1CON(S(=O)(=O)N(C)C)C1 (stereo partly drawn) [Compound A14, 4-[3-(3,5-dichlorophenyl)-3-(trifluoromethyl)-2,4-dihydropyrrol-5-yl]-N-[(4R)-2-(dimethylsulfamoyl)isoxazolidin-4-yl]-2-methyl-benzamide]
≥ 80%: mortality at 200 ppm (Myzus persicae [1]) | percent control (mortality, anti-feedant effect or growth inhibition) at 200 ppm (Spodoptera littoralis) | percent effect (mortality or growth inhibition) at 200 ppm (Plutella xylostella) | percent effect (mortality or growth inhibition) at 200 ppm (Euschistus heros) | mortality at 200 ppm (Tetranychus urticae) | percent effect (mortality or growth inhibition) at 200 ppm (Diabrotica balteata) | mortality at 200 ppm (Thrips tabaci)
